These results are taken from patent US11376252B2, “Multikinase inhibitors and uses in prostatic hyperplasia and urinary track diseases” (AIVIVA BIOPHARMA, INC., priority 2017, dated 2022).

In experiment [1] the test system is testosterone and/or phenylephrine induced BPH in rats. The experiment in a line: Post-induction study in testosterone and/or phenylephrine induced BPH in rats, intra-prostate injection (Example 2). Type of experiment: in vivo, Male Wistar rats. The note with it: for epithelial hyperplasia score (0 not present through 5 severe), representative image: dorsolateral prostate, FIG. 6; for mean prostate weight/100 g body weight compared to vehicle: TE+PE induced days 1-28. As for the experimental part:
Morphologically, BPH is characterized by the formation of a new architecture through the proliferation of the epithelium in pre-existing ducts. Given that stromal cells serve important paracrine regulatory functions in epithelial cell homeostasis, late stage changes in stromal-epithelial interactions could provide insight into BPH progression. A second study was conducted to determine the therapeutic effects of test compounds and vehicle, post-induction in a protocol using testosterone and/or phenylephrine induced BPH in rats.
Male Wistar rats were induced with testosterone (2 mg/kg) plus phenylephrine (5 mg/kg) administered daily by subcutaneous injection on days 1 through 28. Vehicle or test compounds sorafenib (1% w/w), pirfenidone (2.5% w/w), and riociguat (1% w/w) were administered by intra-prostate injection (0.2 ml) in the dorsolateral lobe on days 15 and 29. Animals were euthanized on day 42. Body weights were determined. Prostate glands were harvested and weighed. The experimental design is outlined in Table 2.
At necropsy, the dorsolateral and ventral lobes of the prostate were separated and cut into halves. The left halves were fixed in 10% neutral buffered formalin, sectioned, and stained with Hematoxylin and Eosin (H&E). Epithelial hyperplasia was recognized as an increase in epithelial cells within normal appearing gland profiles, as reflected in the stratification of epithelial cells and increased presence of epithelial tufting and papillary projections. Stromal changes were examined microscopically. These changes included inflammation and tissue fibroplasia. Each section was given a severity score ranging from 0 (not present) through 5 (severe).

For experiment [2], the system named is testosterone (TE) and phenylephrine (PE) induced benign prostate hyperplasia in rats. As to the kind of experiment: Testosterone (TE) and phenylephrine (PE) induced benign prostate hyperplasia in rats, intra-prostate injection (Example 1). Type of experiment: in vivo, Male Wistar rats. The note with it: for glandular hyperplasia as compared to the untreated TE/PE induced prostates: TE/PE induced rats, intra-prostate injection, histology. As for the experimental part: BPH is a true hyperplastic process. Histologic studies have documented an increase in cell number. A study was conducted, therefore, to determine the effects of test compounds and vehicle on testosterone (TE) and phenylephrine (PE) induced benign prostate hyperplasia in rats. Male Wistar rats were induced with testosterone (2 mg/kg) plus phenylephrine (5 mg/kg) administered daily by subcutaneous injection on days 5 through 32. Vehicle or test compounds (all at 1% w/w), nintedanib, sunitinib, lenvatinib, and 0.5% doxazosin mesylate, were administered by intra-prostate injection (0.4 ml) in dorsolateral and ventral lobes on days 1 and 18. Animals were euthanized on day 32. Body weights were determined and prostate glands were harvested. The experimental design is outlined in Table 1.
At necropsy, the ventral and dorsolateral lobes of the prostate were separated and then cut into halves. The left halves were fixed in 10% neutral buffered formalin, sectioned, and stained with Hematoxylin and Eosin (H&E). Histological changes in these sections were scored. Epithelial hyperplasia was recognized as an increase in epithelial cells within normal-appearing gland profiles, primarily reflected by stratification of epithelial cells and increased presence of epithelial tufting and papillary projections. A severity grade of 0 (not present) through 5 (severe) was assigned to each sample.

The test system of experiment [3] is suture induced fibrosis model in rabbits. The experiment in a line: Suture induced fibrosis model in rabbits (cornea), topical administration (Example 4). Type of experiment: in vivo. The note with it: 0.3% w/w topical, three times daily for 10 days, Day 11; for fibroplasia and/or collagen density (histological staining, Masson's trichrome): FIG. 8. As for the experimental part:
A study was conducted to determine the potential beneficial effects of topical administration of test compounds and vehicle in a suture induced fibrosis model in rabbits. Sutures were placed intrastromally, under a microscope, in the cornea of rabbits. In each eye, one 9-0 silk suture was placed, in a vertical position, temporal to the center of the cornea and a second suture was placed nasal to the corneal center. Each suture had two stromal incursions approximately 2 mm from the limbus. Test compounds having a certain spectrum of multikinase inhibition activities, or vehicle, were topically instilled (35 μL/eye) in the eyes three times daily for 10 days following surgery. The treatment groups include vehicle, nintedanib (0.3%, w/w), sorafenib (0.3%, w/w) and lenvatinib (0.3%, w/w). Six left eyes were used per treatment group.
During the in-life phase, gross ocular observations of very slight to moderate conjunctival congestion and swelling were similar among groups, including the vehicle control. The animals were sacrificed on Day 11 and eyes enucleated and dissected for histopathological evaluation.

Experiment [4] has as its system laser induced choroidal neovascularization. As to the kind of experiment: Laser induced choroidal neovascularization in rat eyes (Example 5). The format is in vivo. The note with it: Day 22, FIG. 9; for lesion sizes relative to vehicle (fluorescein angiography): topical eyedrop 1%, three times a day Days 2-21. The source says:
Increased expression of angiogenic factors, such as VEGF and bFGF, along with increased microvessel density, have been reported in benign prostatic hyperplasia, high grade prostate intraepithelial neoplasia and prostate cancer. […] In this example, the effect of local administration of multikinase inhibitors in a rat model of neovascularization was examined. New vessel growth is regulated by growth factor receptor signaling pathways, the functions of which broadly overlap among organs and tissues. In this study, effects of local administration of the multikinase inhibitors nintedanib and lenvatinib were examined by intravitreal injection or topical application to rat eyes following laser induced choroidal neovascularization. A 22-day study was conducted to determine the effects of test agents, positive control, or vehicle on the development of new vessels. On Day 1, laser treatments were performed on all animals using a 520 nm thermal laser to generate a total of three lesions per eye. On Days 2-21, bilateral topical administration of vehicle, 1% nintedanib, or 1% lenvatinib was performed three times a day. On Day 3, bilateral intravitreal injection of vehicle, 5 μg/eye of rat anti-VEGF antibody, 50 μg/eye of nintedanib, or 50 μg/eye of lenvatinib was performed in a second group of animals. On Day 22, fluorescein angiography was performed on all animals and lesion size/area was determined using image analysis software (ImageJ).

Where [5] appears, read: dorsolateral prostate, TE and PE induced, intra-prostate injection days 1 and 18, 1% w/w (doxazosin 0.5%), day 32, H&E, FIG. 1.
The mark [6] stands for this setting: ventral prostate, TE and PE induced, intra-prostate injection days 1 and 18, 1% w/w (doxazosin 0.5%), day 32, H&E, FIG. 2.
The mark [7] stands for this setting: intravitreal injection 50 μg/eye on Day 3.
[8] abbreviates: intra-prostate injection days 15 and 29, day 42, FIG. 5.
Setting [9] is: TE+PE induced, intra-prostate injection days 15 and 29, day 42.

“Also recorded” adds a separate entry of the source. Counter-ions that a name gives are not always drawn.

As to `COC(=O)N(C)c1c(N)nc(-c2nn(Cc3ccccc3F)c3ncccc23)nc1N` [riociguat], the “effect on prostate volume and histological changes in epithelial hyperplasia” value in experiment [1] (TE induced rats, 1% w/w intra-prostate) was “showed an effect on prostate volume and histological changes in epithelial hyperplasia”. Besides, in experiment [1] (TE induction days 1-28, intra-prostate injection days 15 and 29, day 42, FIG. 5), the “mean prostate weight/100 g body weight compared to vehicle control” value was “reduced the mean prostate weight”. Also, in experiment [1] (TE induced, intra-prostate injection days 15 and 29, day 42), the “epithelial hyperplasia score (0 not present through 5 severe), representative image” value came out at 1.

With `COc1cc2nc(N3CCN(C(=O)C4COc5ccccc5O4)CC3)nc(N)c2cc1OC` (stereo not drawn) [doxazosin, doxazosin mesylate], in experiment [2], the “glandular hyperplasia as compared to the untreated TE/PE induced prostates” value is reported as “demonstrated reduction of glandular hyperplasia”. Besides, the “epithelial hyperplasia score (severity grade 0 not present through 5 severe), representative image” value in experiment [2] (setting [5]) and in experiment [2] (setting [6]) was 3 in each case.

Take `COC(=O)c1ccc2c(c1)NC(=O)/C2=C(\Nc1ccc(N(C)C(=O)CN2CCN(C)CC2)cc1)c1ccccc1` [nintedanib]: the “glandular hyperplasia as compared to the untreated TE/PE induced prostates” value in experiment [2] is recorded as “demonstrated reduction of glandular hyperplasia”. The “epithelial hyperplasia score (severity grade 0 not present through 5 severe), representative image” value in experiment [2] (setting [5]) is given as 3. Also, the “epithelial hyperplasia score (severity grade 0 not present through 5 severe), representative image” value in experiment [2] (setting [6]) is reported as 3. Moreover, in experiment [3], the “alpha SMA staining by immunohistochemical analysis relative to vehicle” value is on record as “significantly reduced alpha SMA staining” and the “fibroplasia and/or collagen density (histological staining, Masson's trichrome)” value is recorded as “significantly reduced fibroplasia and/or collagen density”. The “lesion sizes relative to vehicle-treated eyes (fluorescein angiography)” value in experiment [4] (setting [7]) is on record as “significantly reduced lesion sizes”. In addition, in experiment [4], the “lesion sizes relative to vehicle (fluorescein angiography)” value is listed as “reduced lesion sizes”.

Turning to `CNC(=O)c1cc(Oc2ccc(NC(=O)Nc3ccc(Cl)c(C(F)(F)F)c3)cc2)ccn1` [sorafenib], the “mean prostate weight/100 g body weight compared to vehicle” value in experiment [1] (setting [8]) is reported as “did not show a reduction in mean prostate weight”. The “inhibition of benign prostate hyperplasia / therapeutic effect in the prostate” value in experiment [1] (TE+PE induced rats, 1% w/w intra-prostate) is given as “not an effective inhibitor; also recorded: did not show any therapeutic effect”. In experiment [1] (setting [9]), the “epithelial hyperplasia score (0 not present through 5 severe), representative image” value is listed as 2. In experiment [3], the “alpha SMA staining by immunohistochemical analysis relative to vehicle” value is given as “no effect on alpha SMA” and the “fibroplasia and/or collagen density (histological staining, Masson's trichrome)” value is “little or no effect”.

With `Cc1ccc(=O)n(-c2ccccc2)c1` [pirfenidone], the “mean prostate weight/100 g body weight compared to vehicle” value in experiment [1] (setting [8]) is recorded as “did not show a reduction in mean prostate weight”. Moreover, in experiment [1] (setting [9]), the “epithelial hyperplasia score (0 not present through 5 severe), representative image” value stood at 1.

For `CCN(CC)CCNC(=O)c1c(C)[nH]c(/C=C2\C(=O)Nc3ccc(F)cc32)c1C` [sunitinib], the “epithelial hyperplasia score (severity grade 0 not present through 5 severe), representative image” value in experiment [2] (768 h) and in experiment [2] (setting [5]) was 3 each time.

Consider `COc1cc2nccc(Oc3ccc(NC(=O)NC4CC4)c(Cl)c3)c2cc1C(N)=O` [lenvatinib], for which, in experiment [2], the “glandular hyperplasia as compared to the untreated TE/PE induced prostates” value is “demonstrated reduction of glandular hyperplasia”. The “epithelial hyperplasia score (severity grade 0 not present through 5 severe), representative image” value in experiment [2] (setting [5]) came to 2. For the same molecule, the “epithelial hyperplasia score (severity grade 0 not present through 5 severe), representative image” value in experiment [2] (setting [6]) came out at 3. Further, in experiment [3], the “alpha SMA staining by immunohistochemical analysis relative to vehicle” value is given as “significantly reduced alpha SMA staining” and the “fibroplasia and/or collagen density (histological staining, Masson's trichrome)” value was “significantly reduced fibroplasia and/or collagen density”. Moreover, in experiment [4] (setting [7]), the “lesion sizes relative to vehicle-treated eyes (fluorescein angiography)” value is recorded as “significantly reduced lesion sizes”. For the same molecule, in experiment [4] (intravitreal injection 50 μg/eye on Day 3, anti-VEGF 5 μg/eye), the “lesion sizes relative to positive control, rat anti-VEGF (fluorescein angiography)” value is given as “significantly reduced lesion sizes”. Further, the “lesion sizes relative to vehicle (fluorescein angiography)” value in experiment [4] is reported as “reduced lesion sizes”.
